Measured values taken from patent publication US20240174596A1 (Northwestern University, priority 2021, published 2024).
Counter-ions that a name gives are not always drawn. Like-named read-outs stand apart in the source and are kept apart here.

How the values were obtained:
hOAT [1] = target: T1, hOAT (Homo sapiens, UniProt P04181); assay: Fluoride ion release assay; type: biochemical
T1 construct: made in house; host or cells: E. coli BL21(DE3)
T1 sequence (P04181 26-439): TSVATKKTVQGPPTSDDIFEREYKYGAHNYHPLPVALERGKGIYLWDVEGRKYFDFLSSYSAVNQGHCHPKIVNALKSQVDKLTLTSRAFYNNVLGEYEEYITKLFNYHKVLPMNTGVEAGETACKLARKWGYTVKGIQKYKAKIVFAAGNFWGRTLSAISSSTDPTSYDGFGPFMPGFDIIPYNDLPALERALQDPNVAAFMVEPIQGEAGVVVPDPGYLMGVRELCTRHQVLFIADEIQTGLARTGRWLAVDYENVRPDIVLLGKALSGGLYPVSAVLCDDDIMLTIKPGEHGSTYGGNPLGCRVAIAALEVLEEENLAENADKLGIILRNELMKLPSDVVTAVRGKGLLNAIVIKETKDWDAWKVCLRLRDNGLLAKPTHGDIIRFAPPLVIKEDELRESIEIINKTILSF
Description: The fluoride ion release assay was conducted using previous protocols.^10 The final concentration of enzyme in the sample was determined via BCA protein assay kit (Pierce, cat: 23225). A calibration curve of voltage (V, mV) was generated from varying concentrations of NaF (F, μM). For accurate detection of fluoride ion concentration, 10 μM of fluoride ion was added to each control and sample The number of fluoride ions released per active site was calculated by the ratio of the fluoride ion release concentration and enzyme concentration.

hOAT [2] = target: T1, hOAT; assay: Partition ratio experiment (titration of hOAT); type: biochemical
Description: FIG. 9. Titration of hOAT with SS-1-148. The loss of enzyme activity was measured as a function of the ratio of […] to enzyme concentration. Linear regression was used on the linear portion of the curves to obtain the X-intercept, which was the turnover number (partition ratio=turnover number−1).
The partition ratio was calculated using previous protocols.^8-10

[3] = Liver microsomal stability, mouse; type: in vitro ADME
Brain/plasma PK studies = type: in vivo; conditions: brain, read-out: B/P ratio
CYP 1A2 = target: T2, CYP 1A2 (Homo sapiens, UniProt P05177); assay: CYP inhibition 1A2; type: in vitro ADME
T2 sequence (P05177 1-516): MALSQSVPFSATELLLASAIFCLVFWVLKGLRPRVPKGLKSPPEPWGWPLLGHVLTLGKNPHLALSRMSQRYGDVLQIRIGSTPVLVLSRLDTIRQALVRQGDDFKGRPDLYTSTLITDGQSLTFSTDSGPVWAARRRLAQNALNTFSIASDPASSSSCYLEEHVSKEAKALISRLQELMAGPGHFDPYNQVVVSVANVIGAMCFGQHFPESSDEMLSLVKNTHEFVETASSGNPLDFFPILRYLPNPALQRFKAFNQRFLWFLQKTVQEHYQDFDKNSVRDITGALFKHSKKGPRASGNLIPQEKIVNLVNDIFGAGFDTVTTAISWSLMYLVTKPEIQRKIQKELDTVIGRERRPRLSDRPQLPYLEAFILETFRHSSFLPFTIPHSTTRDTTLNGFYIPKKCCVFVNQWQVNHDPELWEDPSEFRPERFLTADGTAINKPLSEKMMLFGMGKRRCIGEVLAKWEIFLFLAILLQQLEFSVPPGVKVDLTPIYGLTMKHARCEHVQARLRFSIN

CYP 2C19 = CYP 2C19 (Homo sapiens, UniProt P33261); assay: CYP inhibition 2C19; type: in vitro ADME
CYP 2C19, sequence (P33261 whole entry): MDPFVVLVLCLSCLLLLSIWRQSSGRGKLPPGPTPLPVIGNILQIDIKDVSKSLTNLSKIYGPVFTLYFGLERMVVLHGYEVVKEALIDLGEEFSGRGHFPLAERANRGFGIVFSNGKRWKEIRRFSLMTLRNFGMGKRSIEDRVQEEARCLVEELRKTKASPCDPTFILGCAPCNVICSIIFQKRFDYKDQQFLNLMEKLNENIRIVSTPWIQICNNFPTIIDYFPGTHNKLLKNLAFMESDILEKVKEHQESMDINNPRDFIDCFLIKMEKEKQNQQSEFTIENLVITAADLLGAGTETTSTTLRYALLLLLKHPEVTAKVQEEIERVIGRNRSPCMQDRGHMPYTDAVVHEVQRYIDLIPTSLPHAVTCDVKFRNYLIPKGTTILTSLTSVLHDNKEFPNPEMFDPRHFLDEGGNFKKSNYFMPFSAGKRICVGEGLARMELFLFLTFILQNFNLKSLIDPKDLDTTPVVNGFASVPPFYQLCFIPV

hOAT [4] = target: T1, hOAT; assay: Time-dependent dialysis of inhibited hOAT; type: biochemical; conditions: up to 48 h against buffer with excessive PLP and α-KG
Description: Plausible Inactivation Mechanisms of SS-1-148 with hOAT. The irreversibility of the inhibition of hOAT by SS-1-148 was evaluated by a time-dependent dialysis experiment up to 48 h against a buffer consisting of excessive PLP and α-KG (FIG. 10). […] To reveal the structure of the final product in the inactivation reaction, we co-crystallized hOAT with an excessive amount of SS-1-148. […] It also contains three copies of the protein monomer in one asymmetric unit. Similar to the soaking crystal structure shown in FIG. 4A, PLP is covalently linked to SS-1-148 moiety in the cocrystal structure. However, no covalent bond is noticed between Lys292 and the final product. Moreover, in the published crystal structure of the native enzyme (holo-hOAT), Arg413 typically forms a salt bridge with Glu235, which is found intact for several cocrystals of hOAT with different inactivators.^14, 23, 26 In the hOAT/SS-1-148 soaking result (FIG. 4A), the salt bridge of Arg413-Glu235 is broken due to the existence of an alternative salt bridge between the carboxylate of one intermediate and Arg413. […] Instead, Arg413, Gln266, and the final product are hydrogen-bonded to the same water molecule.
The dialysis experiment was conducted using previous protocols.^8-10

hOAT [5] = target: T1, hOAT; assay: Denaturing intact protein mass spectrometry of inactivated hOAT; conditions: hOAT fully inactivated; denaturing intact LC-MS
Source text: The majority of hOAT remained unmodified (FIG. 5A, top) in comparison with native hOAT as a control (FIG. 5A, bottom). […] However, one would expect a higher abundance of covalently adducted enzyme under these conditions where the enzyme is fully inactivated. This finding thus supported a major non-covalent, inactivation mechansim between hOAT and SS-1-148.
Treated and unmodified purified hOAT samples were desalted ten times with Optima-grade water (Fisher) on Amicon Ultra 10 KDa molecular weight spin filters (Millipore). To chromatographically resolve protein. 0.5 μg of protein was loaded onto a 3 cm PLRP-S (Agilent) trap column using a Dionex Ultimate3000 liquid chromatography system (Thermo Fisher). The protein analyte was washed with a 10-min isocratic gradient of 10% Solvent B (95% acetonitrile/5% H2O/0.2% formic acid) and 90% Solvent A (5% acetonitrile/95% H20/0.2% formic acid). Protein was resolved on an in-house made 75 μm ID×15 cm long nanopore capillary column packed with PLRP-S resin (Agilent). […]

What does the source list for `N[C@H]1C=C(C(=O)O)CC1(F)F` [SS-1-148, (S)-3-Amino-4,4-difluorocyclopent-1-enecarboxylic acid hydrochloric acid salt]?
fluoride ion released per inactivation event (hOAT [1]): 33.9±0.8 equivalents; Fluoride ion release (hOAT [1]; without α-KG, triplicate, mean with standard deviation): 33.9 ± 0.8; equivalents turned over per active site for each equivalent leading to inactivation (hOAT [2]): 34.9 equivalents; Liver microsomal stability (t1/2) Mouse [3]: N/C; Kp at 0.25 h (Brain/plasma PK studies; IV (5 mg/kg)): 0.2; Kp at 0.25 h (Brain/plasma PK studies; PO (30 mg/kg)): 0.14; Kp at 2 h (Brain/plasma PK studies; PO (30 mg/kg), 2 h): 0.26; IC50 (CYP 1A2): > 100 µM; IC50 (CYP 2C19): > 100 µM; remaining activity of hOAT after dialysis (hOAT [4]): unchanged; hOAT covalently modified (hOAT [5]): ~16%
